Publication PMC7884382, “A Phase 1 study of RO6870810, a novel bromodomain and extra-terminal protein inhibitor, in patients with NUT carcinoma, other solid tumours, or diffuse large B-cell lymphoma” (British Journal of Cancer, 2020)
Like-named read-outs stand apart in the source and are kept apart here.

Experimental: Patients were considered evaluable for safety if they received ≥1 injection of the study drug. All adverse events (AEs) were graded per the National Cancer Institute’s Common Terminology Criteria for Adverse Events (CTCAE) version 4.03.
Grade ≤3 drug-related fever or skin or SC tissue disorders localised to the site of injection—including grade ≤3 rash, pruritus, skin induration or pain—were not considered DLTs.
Data for patients with NC and lymphoma were evaluated but not included in the MTD determination.

## Cc1sc2c(c1C)C(c1ccc(Cl)cc1)=N[C@@H](CC(=O)NCCCN1CCN(C)CC1)c1nnc(C)n1-2 [RO6870810]
DLBCL (n = 19)
  Death due to AE: 3 (15.8) n (%)
  Death due to treatment-related AE: 0 n (%)
NC (n = 8)
  Death due to AE: 3 (37.5) n (%)
  Death due to treatment-related AE: 0 n (%)
Solid tumours (n = 47)
  Death due to AE: 2 (4.3) n (%)
  Death due to treatment-related AE: 0 n (%)
All patients
  Treatment-related grade 5 AEs: No treatment-related grade 5 AEs occurred
human, in vivo
  Grade 3/4 treatment-related AE: anaemia: 8%
  Grade 3/4 treatment-related AE: fatigue: 10%
  Grade 3/4 treatment-related AE: hyperbilirubinemia: 5%
  Grade 3/4 treatment-related AE: thrombocytopenia: 10%
  Incidence of treatment-related thrombocytopenia: 12%
  Treatment-emergent AE: Abdominal pain: 13 (17.6) n (%)
  Treatment-emergent AE: Anemia: 20 (27.0) n (%)
  Treatment-emergent AE: Back pain: 13 (17.6) n (%)
  Treatment-emergent AE: Blood bilirubin increased: 14 (18.9) n (%)
  Treatment-emergent AE: Constipation: 14 (18.9) n (%)
  Treatment-emergent AE: Cough: 10 (13.5) n (%)
  Treatment-emergent AE: Decreased appetite: 38 (51.4) n (%)
  Treatment-emergent AE: Dehydration: 13 (17.6) n (%)
  Treatment-emergent AE: Diarrhea: 26 (35.1) n (%)
  Treatment-emergent AE: Dizziness: 10 (13.5) n (%)
  Treatment-emergent AE: Dry mouth: 11 (14.9) n (%)
  Treatment-emergent AE: Dysgeusia: 20 (27.0) n (%)
  Treatment-emergent AE: Dyspnea: 12 (16.2) n (%)
  Treatment-emergent AE: Fatigue: 43 (58.1) n (%)
  Treatment-emergent AE: Headache: 12 (16.2) n (%)
  Treatment-emergent AE: Hypomagnesaemia: 10 (13.5) n (%)
  Treatment-emergent AE: Injection site erythema: 26 (35.1) n (%)
  Treatment-emergent AE: Injection site induration: 21 (28.4) n (%)
  Treatment-emergent AE: Injection site pain: 25 (33.8) n (%)
  Treatment-emergent AE: Injection site pruritus: 15 (20.3) n (%)
  Treatment-emergent AE: Injection site reaction: 10 (13.5) n (%)
  Treatment-emergent AE: Injection site swelling: 10 (13.5) n (%)
  Treatment-emergent AE: Malaise: 16 (21.6) n (%)
  Treatment-emergent AE: Myalgia: 12 (16.2) n (%)
  Treatment-emergent AE: Nausea: 32 (43.2) n (%)
  Treatment-emergent AE: Thrombocytopenia: 10 (13.5) n (%)
  Treatment-emergent AE: Vomiting: 28 (37.8) n (%)
  Treatment-emergent AE: Weight decreased: 9 (12.2) n (%)
  Treatment-related AE of any grade: decreased appetite: 35%
  Treatment-related AE of any grade: fatigue: 42%
  Treatment-related AE of any grade: injection-site erythema: 35%
  Treatment-related AE of any grade: injection-site pain: 32%
  Treatment-related AE of any grade: nausea: 31%
  Treatment-related AE: Cardiomyopathy: 1 (1.4) n (%)
  Treatment-related AE: Cholestasis: 1 (1.4) n (%)
  Treatment-related AE: Dyspnoea: 1 (1.4) n (%)
  Treatment-related AE: Hepatic enzyme increased: 1 (1.4) n (%)
  Treatment-related AE: Neutropenia: 1 (1.4) n (%)
  Treatment-related AE: Peritoneal haemorrhage: 1 (1.4) n (%)
human, in vivo, 0.03 mg/kg
  Treatment-emergent AE: Abdominal pain: 1 (33.3) n (%)
  Treatment-emergent AE: Anemia: 0 n (%)
  Treatment-emergent AE: Back pain: 0 n (%)
  Treatment-emergent AE: Blood bilirubin increased: 0 n (%)
  Treatment-emergent AE: Constipation: 0 n (%)
  Treatment-emergent AE: Cough: 0 n (%)
  Treatment-emergent AE: Decreased appetite: 0 n (%)
  Treatment-emergent AE: Dehydration: 0 n (%)
  Treatment-emergent AE: Diarrhea: 1 (33.3) n (%)
  Treatment-emergent AE: Dizziness: 0 n (%)
  Treatment-emergent AE: Dry mouth: 0 n (%)
  Treatment-emergent AE: Dysgeusia: 0 n (%)
  Treatment-emergent AE: Dyspnea: 0 n (%)
  Treatment-emergent AE: Fatigue: 0 n (%)
  Treatment-emergent AE: Headache: 0 n (%)
  Treatment-emergent AE: Hypomagnesaemia: 1 (33.3) n (%)
  Treatment-emergent AE: Injection site erythema: 2 (66.7) n (%)
  Treatment-emergent AE: Injection site induration: 1 (33.3) n (%)
  Treatment-emergent AE: Injection site pain: 0 n (%)
  Treatment-emergent AE: Injection site pruritus: 3 (100) n (%)
  Treatment-emergent AE: Injection site reaction: 0 n (%)
  Treatment-emergent AE: Injection site swelling: 1 (33.3) n (%)
  Treatment-emergent AE: Malaise: 1 (33.3) n (%)
  Treatment-emergent AE: Myalgia: 1 (33.3) n (%)
  Treatment-emergent AE: Nausea: 1 (33.3) n (%)
  Treatment-emergent AE: Thrombocytopenia: 0 n (%)
  Treatment-emergent AE: Vomiting: 0 n (%)
human, in vivo, 0.06 mg/kg
  Treatment-emergent AE: Abdominal pain: 1 (33.3) n (%)
  Treatment-emergent AE: Anemia: 0 n (%)
  Treatment-emergent AE: Back pain: 0 n (%)
  Treatment-emergent AE: Blood bilirubin increased: 0 n (%)
  Treatment-emergent AE: Constipation: 1 (33.3%) n (%)
  Treatment-emergent AE: Cough: 0 n (%)
  Treatment-emergent AE: Decreased appetite: 0 n (%)
  Treatment-emergent AE: Dehydration: 0 n (%)
  Treatment-emergent AE: Diarrhea: 0 n (%)
  Treatment-emergent AE: Dizziness: 0 n (%)
  Treatment-emergent AE: Dry mouth: 0 n (%)
  Treatment-emergent AE: Dysgeusia: 0 n (%)
  Treatment-emergent AE: Dyspnea: 0 n (%)
  Treatment-emergent AE: Fatigue: 2 (66.7) n (%)
  Treatment-emergent AE: Headache: 0 n (%)
  Treatment-emergent AE: Hypomagnesaemia: 0 n (%)
  Treatment-emergent AE: Injection site erythema: 1 (33.3) n (%)
